Here are results for 4 compounds from ChEMBL document CHEMBL5584219 (Bioorg Med Chem Lett, 2024).

Active and inactive are the calls of the source. The calls are words filed in the database; no cut-off is given here.

In test [1] the test system is A549. The test is described as follows: Induction of apoptosis in human A549 cells assessed as necrotic cells at 10 uM incubated for 48 hrs by annexin V FITC and propidium iodide based flow cytometry (reference value: 1.49 %). Type of test: functional. In general terms: A flow cytometer gives signals particle by particle.
Test [2] concerns NCI-H460. The experiment in a line: Antiproliferative activity against human NCI-H460 cells assessed as inhibition of cell growth incubated for 48 hrs by MTT assay. To be noted: NCI-H460, 48 h. It is filed as functional, cell-based. For orientation: Formazan colour is commonly taken as a measure of viable cells.
The subject of test [3] is A549. The test is described as follows: Induction of cell cycle arrest in human A549 cells assessed as accumulation of cells at G0/G1 phase at 10 uM incubated for 48 hrs in presence of erlotinib by flow cytometry analysis (reference value: 53.63%). Type of test: functional.
The test system of test [4] is A549. The experiment in a line: Induction of cell cycle arrest in human A549 cells assessed as accumulation of cells at S phase at 10 uM incubated for 48 hrs in presence of erlotinib by flow cytometry analysis (reference value: 46.37%). Type of test: functional.
For test [5], the system named is A549. The experiment in a line: Induction of apoptosis in human A549 cells assessed as viable cells at 10 uM incubated for 48 hrs in presence of erlotinib by annexin V FITC and propidium iodide based flow cytometry (reference value: 95.6 %). Type of test: functional. The note with it: read-out: Activity.
In test [6] the test system is PC-9. The test is described as follows: Antiproliferative activity against human PC-9 cells assessed as inhibition of cell growth incubated for 48 hrs in presence of erlotinib by MTT assay. Type of test: functional, cell-based. To be noted: PC-9, 48 h.
In test [7] the test system is A549. The test is described as follows: Antiproliferative activity against human A549 cells assessed as inhibition of cell growth incubated for 48 hrs by MTT assay. Type of test: functional, cell-based. To be noted: A549, 48 h.
The test system of test [8] is A549. The experiment in a line: Induction of cell cycle arrest in human A549 cells assessed as accumulation of cells at G0/G1 phase at 10 uM incubated for 48 hrs by flow cytometry analysis (reference value: 53.63%). It is filed as functional.
Test [9] deals with A549. The experiment in a line: Induction of apoptosis in human A549 cells assessed as necrotic cells at 10 uM incubated for 48 hrs in presence of erlotinib by annexin V FITC and propidium iodide based flow cytometry (reference value: 1.49 %). It is filed as functional.
The nature of test [10]: Antiproliferative activity against human PC9 Gefitinib-resistant (GR) cell assessed as inhibition of cell growth incubated for 48 hrs by MTT assay. Type of test: functional, cell-based. To be noted: Gefitinib-resistant PC9, 48 h.
The subject of test [11] is PC-9. The test is described as follows: Antiproliferative activity against human PC-9 cells assessed as inhibition of cell growth incubated for 48 hrs by MTT assay. It is filed as functional, cell-based. The note with it: PC-9, 48 h.
Test [12] is described as follows: Antiproliferative activity against human PC9 Gefitinib-resistant (GR) cell assessed as inhibition of cell growth incubated for 48 hrs in presence of erlotinib by MTT assay. It is filed as functional, cell-based. To be noted: Gefitinib-resistant PC9, 48 h.
Test [13] deals with NCI-H460. The experiment in a line: Antiproliferative activity against human NCI-H460 cells assessed as inhibition of cell growth incubated for 48 hrs in presence of erlotinib by MTT assay. Type of test: functional, cell-based. To be noted: NCI-H460, 48 h.
Test [14] has as its system A549. The experiment in a line: Antiproliferative activity against human A549 cells assessed as inhibition of cell growth incubated for 48 hrs in presence of erlotinib by MTT assay. To be noted: A549, 48 h. It is filed as functional, cell-based.
In test [15] the test system is A549. The test is described as follows: Induction of apoptosis in human A549 cells assessed as viable cells at 10 uM incubated for 48 hrs by annexin V FITC and propidium iodide based flow cytometry (reference value: 95.6 %). It is filed as functional. To be noted: read-out: Activity.
Test [16] concerns A549. The test is described as follows: Induction of apoptosis in human A549 cells assessed as early apoptotic cells at 10 uM incubated for 48 hrs by annexin V FITC and propidium iodide based flow cytometry (reference value: 2.13 %). Type of test: functional.
For test [17], the system named is A549. The test is described as follows: Induction of apoptosis in human A549 cells assessed as early apoptotic cells at 10 uM incubated for 48 hrs in presence of erlotinib by annexin V FITC and propidium iodide based flow cytometry (reference value: 2.13 %). It is filed as functional.
The test system of test [18] is A549. The test is described as follows: Induction of apoptosis in human A549 cells assessed as late apoptotic cells at 10 uM incubated for 48 hrs by annexin V FITC and propidium iodide based flow cytometry (reference value: 0.76 %). It is filed as functional.
Test [19] deals with A549. The experiment in a line: Induction of cell cycle arrest in human A549 cells assessed as accumulation of cells at S phase at 10 uM incubated for 48 hrs by flow cytometry analysis (reference value: 46.37%). It is filed as functional.
Test [20] relates to A549. The test is described as follows: Induction of apoptosis in human A549 cells assessed as late apoptotic cells at 10 uM incubated for 48 hrs in presence of erlotinib by annexin V FITC and propidium iodide based flow cytometry (reference value: 0.76 %). It is filed as functional.
Test [21] can be described thus: Antiproliferative activity against human PC9 Gefitinib-resistant (GR) cell assessed as inhibition of cell growth incubated for 48 hrs in presence of evodiamine by MTT assay. It is filed as functional, cell-based. To be noted: Gefitinib-resistant PC9, 48 h.
The subject of test [22] is A549. The experiment in a line: cells. The note with it: Homo sapiens, A549, 48 h.
Description: Antiproliferative activity against human A549 cells assessed as inhibition of cell growth incubated for 48 hrs in presence of evodiamine by MTT assay
Test [23] deals with A549. The test is described as follows: Induction of apoptosis in human A549 cells assessed as necrotic cells at 10 uM incubated for 48 hrs in presence of 10-hydroxyl-evodiamine by annexin V FITC and propidium iodide based flow cytometry (reference value: 1.49 %). Type of test: functional.
In test [24] the test system is A549. The test is described as follows: Induction of cell cycle arrest in human A549 cells assessed as accumulation of cells at S phase at 10 uM incubated for 48 hrs in presence of 10-hydroxyl-evodiamine by flow cytometry analysis (reference value: 46.37%). Type of test: functional.
The subject of test [25] is A549. The experiment in a line: Induction of cell cycle arrest in human A549 cells assessed as accumulation of cells at G0/G1 phase at 10 uM incubated for 48 hrs in presence of 10-hydroxyl-evodiamine by flow cytometry analysis (reference value: 53.63%). Type of test: functional.
Test [26] concerns A549. The experiment in a line: Induction of apoptosis in human A549 cells assessed as late apoptotic cells at 10 uM incubated for 48 hrs in presence of 10-hydroxyl-evodiamine by annexin V FITC and propidium iodide based flow cytometry (reference value: 0.76 %). Type of test: functional.
Test [27] has as its system PC-9. The experiment in a line: Antiproliferative activity against human PC-9 cells assessed as inhibition of cell growth incubated for 48 hrs in presence of evodiamine by MTT assay. Type of test: functional, cell-based. The note with it: PC-9, 48 h.
The test system of test [28] is A549. The test is described as follows: cells. The note with it: Homo sapiens, A549, 48 h. This is another data set of the same source.
A short description of a further test: cells. The note with it: Homo sapiens, Gefitinib-resistant PC9, 48 h.
In test [29] the test system is A549. The test is described as follows: Induction of apoptosis in human A549 cells assessed as viable cells at 10 uM incubated for 48 hrs in presence of 10-hydroxyl-evodiamine by annexin V FITC and propidium iodide based flow cytometry (reference value: 95.6 %). It is filed as functional. To be noted: read-out: Activity.
For test [30], the system named is PC-9. The experiment in a line: Antiproliferative activity against human PC-9 cells assessed as inhibition of cell growth incubated for 48 hrs in presence of 10-hydroxyl-evodiamine by MTT assay. It is filed as functional, cell-based. The note with it: PC-9, 48 h.
For test [31], the system named is A549. The test is described as follows: Induction of apoptosis in human A549 cells assessed as early apoptotic cells at 10 uM incubated for 48 hrs in presence of 10-hydroxyl-evodiamine by annexin V FITC and propidium iodide based flow cytometry (reference value: 2.13 %). It is filed as functional.
The subject of test [32] is A549. The test is described as follows: Induction of apoptosis in human A549 cells assessed as downregulation of EGFR expression level at 10 uM incubated for 48 hrs by Western blot analysis. It is filed as functional, cell-based. (In general: Immunoblotting shows a protein as a band on a membrane.)
Test [33] concerns A549. The experiment in a line: Induction of apoptosis in human A549 cells assessed as upregulation of caspase-9 protein expression at 10 uM incubated for 48 hrs by Western blot analysis. It is filed as functional, cell-based.
The test system of test [34] is A549. The test is described as follows: Induction of apoptosis in human A549 cells assessed as upregulation of caspase-3 protein expression at 10 uM incubated for 48 hrs by Western blot analysis. Type of test: functional, cell-based.
The test system of test [35] is A549. The test is described as follows: Induction of apoptosis in human A549 cells assessed as increase in bax protein expression at 10 uM incubated for 48 hrs by Western blot analysis. Type of test: functional, cell-based.
Test [36] concerns A549. The experiment in a line: Induction of apoptosis in human A549 cells assessed as increase in p53 protein expression at 10 uM incubated for 48 hrs by Western blot analysis. It is filed as functional, cell-based.
For test [37], the system named is A549. The test is described as follows: Induction of apoptosis in human A549 cells assessed as decrease in bcl-2 protein expression at 10 uM incubated for 48 hrs by Western blot analysis. Type of test: functional, cell-based.

By IC50 is commonly meant the midpoint of a concentration-inhibition curve. `CN1c2ccccc2C(=O)N2CCc3c([nH]c4ccc(O)cc34)[C@H]21`: the Activity with A549 [1] turned out to be 0.34%; in the test with A549 [3], 89.36%; in the test with A549 [4], 10.64%; with A549 [8], 78.23%; with A549 [9], 1.26%; in the test on A549 [16], 27.8%. Moreover, the Activity with A549 [17] came to 34.6%; in the test with A549 [18] it was 1.7%; in the test with A549 [19], 21.77%; with A549 [20] it was 2.12%. For the same compound, the IC50 with NCI-H460 [2] turned out to be 27.8 µM; with PC-9 [6], 1.72 µM; in the test with A549 [7], 11.1 µM; in [10], 10 µM; with PC-9 [11], 10.7 µM; in [12], 3.05 µM. The IC50 in the test on NCI-H460 [13] is 12.8 µM; in the test on A549 [14], 7.74 µM. In addition, the results for the viability at 10 µM in the test with A549 [5] and with A549 [15] were 62% and 70.2%, respectively.
For `CN1c2ccccc2C(=O)N2CCc3c([nH]c4ccccc34)[C@H]21`, the IC50 in the test with NCI-H460 [2] was 17.1 µM; with PC-9 [6] it was 2.37 µM; in the test on A549 [7], 24.7 µM; in test [10], 11.3 µM; with PC-9 [11], 10.2 µM; in test [12] it was 4.81 µM. The values for the IC50 in the test on NCI-H460 [13] and in the test with A549 [14] were 13.4 µM and 9.19 µM, respectively.
For `C#Cc1cccc(Nc2ncnc3cc(OCCOC)c(OCCOC)cc23)c1` [ERLOTINIB], the Activity in the test on A549 [1] was 1%; in the test with A549 [23], 1.26%; with A549 [24], 10.64%; in the test on A549 [25], 89.36%; in the test on A549 [8], 61.87%; in the test with A549 [26], 2.12%. Moreover, the Activity stood at 4.82% in the test with A549 [16], 1.21% in the test with A549 [18], 37.13% in the test on A549 [19] and 34.6% in the test on A549 [31]. Besides, the IC50 in [21] turned out to be 4.81 µM; in the test with A549 [22], 9.19 µM; in the test with A549 [7], 23.5 µM; in test [10] it was 6.92 µM; in the test with PC-9 [27], 2.37 µM; in the test with PC-9 [11], 1.8 µM. For the same compound, the IC50 with A549 [28] was found to be 7.74 µM; in the test “cells”, 3.05 µM; in the test with PC-9 [30] it was 1.72 µM. The values for the viability at 10 µM in the test on A549 [15] and in the test with A549 [29] were 93% and 62%, respectively.
With `COCCOc1cc2ncnc(Nc3cccc(-c4cn(CCOCCOCCOCCNC(=O)Cn5c(C)c(COC(=O)N(C)CCN(C)C(=O)Oc6ccc7[nH]c8c(c7c6)CCN6C(=O)c7ccccc7N(C)[C@H]86)c6c5C(=O)C=C(OC)C6=O)nn4)c3)c2cc1OCCOC`, the Activity is on record as 0.65% in the test on A549 [1]; 62.7% with A549 [8]; 20.9% with A549 [16]; 1.07% in the test on A549 [18]; 37.3% in the test with A549 [19]. Further, the outcome in the test on A549 [32], in the test with A549 [33], with A549 [34], in the test with A549 [35], in the test with A549 [36] and with A549 [37] was Active. Moreover, the IC50 with NCI-H460 [2] amounted to 10.6 µM; with A549 [7], 3.79 µM; in test [10] it was 4.14 µM; in the test on PC-9 [11] it was 1.14 µM. In the test with A549 [15], the viability at 10 µM was 77.4%.
